Results taken from patent publication US20040044000A1, “Isoquinoline derivatives as matrix metalloproteinase inhibitors” (priority 2002, published 2004).

Assays:
Type in all cases: biochemical
[1] = biological target: T1, MMP-13 catalytic domain (MMP-13CD) (Homo sapiens, UniProt P45452); test: Inhibition of MMP-13 catalytic domain (thiopeptolide substrate hydrolysis); conditions: Biological Table 1; read-out: MMP-13CD IC50
T1 construct: use the catalytic domain of the MMP-13 enzyme, namely matrix metalloproteinase-13 catalytic domain (“MMP-13CD”), rather than the corresponding full-length enzyme
Text: (§1) The assays measure the amount by which a test compound reduces the hydrolysis of a thiopeptolide substrate catalyzed by a matrix metalloproteinase enzyme. Such assays are described in detail by Ye et al., in Biochemistry, 1992;31(45):11231-11235, which is incorporated herein by reference. One such assay is described below in Biological Method 1.
Some of the particular methods described below use the catalytic domain of the MMP-13 enzyme, namely matrix metalloproteinase-13 catalytic domain (“MMP-13CD”), rather than the corresponding full-length enzyme, MMP-13. It has been shown previously by Ye Qi-Zhuang, Hupe D., and Johnson L. (Current Medicinal Chemistry, 1996;3:407-418) that inhibitor activity against a catalytic domain of an MMP is predictive of the inhibitor activity against the respective full-length MMP enzyme.
(§2) Thiopeptolide substrates show virtually no decomposition or hydrolysis at or below neutral pH in the absence of a matrix metalloproteinase enzyme. A typical thiopeptolide substrate commonly utilized for assays is Ac-Pro-Leu-Gly-thioester-Leu-Leu-Gly-OEt. A 100 μL assay mixture will contain 50 mM of N-2-hydroxyethylpiperazine-N′-2-ethanesulfonic acid buffer (“HEPES,” pH 7.0), 10 mM CaCl2, 100 μM thiopeptolide substrate, and 1 mM 5,5′-dithio-bis-(2-nitro-benzoic acid) (DTNB). The thiopeptolide substrate concentration may be varied, for example from 10 to 800 μM to obtain Km and Kcat values. The change in absorbance at 405 nm is monitored on a Thermo Max microplate reader (molecular Devices, Menlo Park, Calif.) at room temperature (22° C.). The calculation of the amount of hydrolysis of the thiopeptolide substrate is based on E412=13600 M^−1 cm^−1 for the DTNB-derived product 3-carboxy-4-nitrothiophenoxide. Assays are carried out with and without matrix metalloproteinase inhibitor compounds, and the amount of hydrolysis is compared for a determination of inhibitory activity of the test compounds.
(§3) Test compounds were evaluated at various concentrations in order to determine their respective IC50 values, the micromolar concentration of compound required to cause a 50% inhibition of catalytic activity of the respective enzyme.

[2] = biological target: T2, MMP-17 catalytic domain (MMP-17CD) (Homo sapiens, UniProt Q9ULZ9); test: Inhibition of MMP-17 catalytic domain (thiopeptolide substrate hydrolysis)
T2 construct: MMP-3 catalytic domain, MMP-12 catalytic domain, MMP-14 catalytic domain, and MMP-17 catalytic domain
T2 sequence (Q9ULZ9 126-295 limits assumed): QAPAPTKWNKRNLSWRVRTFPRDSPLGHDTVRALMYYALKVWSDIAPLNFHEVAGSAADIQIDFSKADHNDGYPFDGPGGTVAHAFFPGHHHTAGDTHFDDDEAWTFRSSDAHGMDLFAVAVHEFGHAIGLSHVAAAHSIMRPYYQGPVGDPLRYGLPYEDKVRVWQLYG
Text: as §1, §2, §3

[3] = biological target: T3, MMP-12 catalytic domain (MMP-12CD) (Homo sapiens, UniProt P39900); test: Inhibition of MMP-12 catalytic domain (thiopeptolide substrate hydrolysis)
T3 construct: MMP-3 catalytic domain, MMP-12 catalytic domain, MMP-14 catalytic domain, and MMP-17 catalytic domain
T3 sequence (P39900 106-263 limits assumed, species assumed): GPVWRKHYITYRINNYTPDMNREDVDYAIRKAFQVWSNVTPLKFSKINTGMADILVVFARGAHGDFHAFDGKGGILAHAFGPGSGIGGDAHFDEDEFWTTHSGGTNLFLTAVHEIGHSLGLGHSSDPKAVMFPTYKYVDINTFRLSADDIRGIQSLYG
Text: as §1, §2, §3
(§4) The test described above for the inhibition of MMP-13 may also be adapted and used to determine the ability of the compounds of Formula I to inhibit the matrix metalloproteases MMP-1, MMP-2, MMP-3, MMP-7, MMP-9, MMP-12 and MMP-14.

[4] = biological target: MMP-14 catalytic domain (MMP-14CD) (Homo sapiens, UniProt P50281); test: Inhibition of MMP-14 catalytic domain (thiopeptolide substrate hydrolysis)
Text: as §1, §2, §3, §4

[5] = biological target: MMP-3 catalytic domain (MMP-3CD) (Homo sapiens, UniProt P08254); test: Inhibition of MMP-3 catalytic domain (thiopeptolide substrate hydrolysis, MES pH 6.0)
Chain of MMP-3 catalytic domain (MMP-3CD) (P08254 100-272 limits assumed, species assumed): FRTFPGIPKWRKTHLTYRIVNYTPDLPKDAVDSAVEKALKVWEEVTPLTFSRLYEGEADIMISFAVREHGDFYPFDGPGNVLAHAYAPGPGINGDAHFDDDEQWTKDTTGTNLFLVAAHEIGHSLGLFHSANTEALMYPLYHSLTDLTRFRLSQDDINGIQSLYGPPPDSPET
Text: as §1, §2, §3
It should be appreciated that the assay buffer used with MMP-3CD was 50 mM N-morpholinoethane sulfonate (“MES”) at pH 6.0 rather than the HEPES buffer at pH 7.0 described above.

| Compound | IC50 [1] [µM] | IC50 [2] [µM] | IC50 [3] [µM] | IC50 [4] [µM] | IC50 [5] [µM] |
| --- | --- | --- | --- | --- | --- |
| O=C(NN1CCCCC1)c1ccc(Cn2ccc3ccc(C#CCc4ccccc4)cc3c2=O)cc1 [Example 20, 4-[1-oxo-7-(3-phenylprop-1-ynyl)-1H-isoquinolin-2-ylmethyl]-N-piperidin-1-yl-benzamide] | 0.039 | 2.3 | > 30 | > 30 | 8 |
| O=C(O)c1ccc(Cn2ccc3ccc(C(=O)NCc4cccnc4)cc3c2=O)cc1 [Example 30, 4-{1-oxo-7-[(pyridin-3-ylmethyl)carbamoyl]-1H-isoquinolin-2-ylmethyl}benzoic Acid] | 0.4 | > 100 | > 100 | > 100 | > 100 |
| O=C1CC(NC(=O)c2ccc(Cn3ccc4ccc(C#CCc5ccccc5)cc4c3=O)cc2)=NN1 [Example 22, N-(5-oxo-4,5-dihydro-1H-pyrazol-3-yl)-4-[1-oxo-7-(3-phenylprop-1-ynyl)-1H-isoquinolin-2-ylmethyl]benzamide] | 0.019 | 14 | > 100 | 16 | 4.1 |
| O=c1c2cc(C#CCc3ccccc3)ccc2ccn1Cc1ccc(-c2nn[nH]n2)cc1 [Example 18, 7-(3-phenylprop-1-ynyl)-2-[4-(2H-tetrazol-5-yl)benzyl]-2H-isoquinolin-1-one] | 0.0029 | > 30 | > 30 | > 30 | 4 |
| N#Cc1ccc(Cn2ccc3ccc(C#CCc4ccccc4)cc3c2=O)cc1 [Example 19] | 0.049 | > 100 | > 100 | 28 | 5 |
| O=C(O)c1ccc(Cn2ccc3ccc(C(=O)NCc4ccncc4)cc3c2=O)cc1 [Example 29, 4-{1-oxo-7-[(pyridin-4-ylmethyl)carbamoyl]-1H-isoquinolin-2-ylmethyl}benzoic Acid] | 0.19 | > 100 | > 100 | > 100 | > 100 |
| COc1cc(CNC(=O)c2ccc3ccn(Cc4ccc(F)c(F)c4)c(=O)c3c2)ccn1 [Example 23, 2-(3,4-difluorobenzyl)-1-oxo-1,2-dihydroisoquinoline-7-carboxylic acid (2-methoxypyridin-4-ylmethyl)amide] | 0.29 | > 10 | > 100 | > 100 | > 100 |
| COc1ccc(CNC(=O)c2ccc3ccn(Cc4ccc(F)c(F)c4)c(=O)c3c2)cc1 [Example 25] | 0.33 | > 30 | > 30 | > 100 | 60 |
| COc1cc(CNC(=O)c2ccc3ccn(Cc4ccc(C(=O)O)cc4)c(=O)c3c2)ccn1 [Example 27, 4-{7-[(2-methoxypyridin-4-ylmethyl)carbamoyl]-1-oxo-1H-isoquinolin-2-ylmethyl}benzoic acid] | 0.036 | 74 | > 100 | > 100 | > 100 |

Continued, values first:

| IC50 [1] [µM] | IC50 [2] [µM] | IC50 [3] [µM] | IC50 [4] [µM] | IC50 [5] [µM] | Compound |
| --- | --- | --- | --- | --- | --- |
| 0.03 | > 100 | > 100 | > 100 | > 100 | O=C(O)c1ccc(Cn2ccc3ccc(C(=O)NCc4ccc(F)cc4)cc3c2=O)cc1 [Example 31, 4-[7-(4-fluoro-benzylcarbamoyl)-1-oxo-1H-isoquinolin-2-ylmethyl]benzoic Acid] |
| 0.21 | > 100 | 61 | > 100 | > 30 | COc1cccc(CNC(=O)c2ccc3ccn(Cc4ccc(S(C)(=O)=O)cc4)c(=O)c3c2)c1 [Example 53, 2-(4-methane-sulfonylbenzyl)-1-oxo-1,2-dihydro-isoquinoline-7-carboxylic Acid 3-methoxy-benzylamide] |
| 0.068 | > 10 |  |  | 16 | O=C(NCc1ccc(-c2csnn2)cc1)c1ccc2ccn(Cc3ccc(-c4nn[nH]n4)cc3)c(=O)c2c1 [Example 64, 1-oxo-2-[4-(2H-tetrazol-5-yl)benzyl]-1,2-dihydroisoquinoline-7-carboxylic Acid 4-[1,2,3]thiadiazol-4-yl-benzylamide] |
| 0.68 | > 100 | > 30 | > 100 | > 100 | COc1cc(CNC(=O)c2ccc3ccn(Cc4ccc(S(C)(=O)=O)cc4)c(=O)c3c2)ccn1 [Example 51, 2-(4-methane-sulfonylbenzyl)-1-oxo-1,2-dihydro-isoquinoline-7-carboxylic Acid (2-methoxypyridin-4-ylmethyl)amide] |
| 0.43 | > 10 | 6.8 | > 10 | 6.2 | CSc1ccc(CNC(=O)c2ccc3ccn(Cc4ccc(C#N)cc4)c(=O)c3c2)cc1 [Example 40, 2-(4-cyanobenzyl)-1-oxo-1,2-dihydro-isoquinoline-7-carboxylic Acid 4-methylsulfanyl-benzylamide] |
| 0.04 | > 100 | > 30 | > 100 | > 100 | O=C(NCc1ccncc1)c1ccc2ccn(Cc3ccc(-c4nn[nH]n4)cc3)c(=O)c2c1 [Example 57, 1-oxo-2-[4-(2H-tetrazol-5-yl)benzyl]-1,2-dihydroisoquinoline-7-carboxylic Acid (pyridin-4-ylmethyl)amide] |
| 0.22 | > 100 | 22 | > 100 | 31 | Cc1ccc(CNC(=O)c2ccc3ccn(Cc4ccc(-c5nn[nH]n5)cc4)c(=O)c3c2)cc1 [Example 60, 1-oxo-2-[4-(2H-tetrazol-5-yl)benzyl]-1,2-dihydroisoquinoline-7-carboxylic Acid 4-methyl-benzylamide] |
| 0.017 | 11 | 56 | > 100 | 27 | COc1ccc(CNC(=O)c2ccc3ccn(Cc4ccc(-c5nn[nH]n5)cc4)c(=O)c3c2)cc1 [Example 58, 1-oxo-2-[4-(2H-tetrazol-5-yl)benzyl]-1,2-dihydroisoquinoline-7-carboxylic Acid 4-methoxy-benzylamide] |
| 0.15 | > 100 | > 100 | > 100 | > 100 | COc1cc(CNC(=O)c2ccc3ccn(Cc4ccc(C(=O)O)cc4)c(=O)c3c2)ccc1O [Example 32] |
| 0.091 | > 30 | > 10 | > 100 | > 100 | COc1cc(CNC(=O)c2ccc3ccn(Cc4ccc(-c5nn[nH]n5)cc4)c(=O)c3c2)ccc1O [Example 65, 1-oxo-2-[4-(2H-tetrazol-5-yl)benzyl]-1,2-dihydroisoquinoline-7-carboxylic Acid 4-hydroxy-3-methoxy-benzylamide] |
| 0.032 | > 10 | 5 | > 10 | 12 | CSc1ccc(CNC(=O)c2ccc3ccn(Cc4ccc(-c5nn[nH]n5)cc4)c(=O)c3c2)cc1 [Example 61, 1-oxo-2-[4-(2H-tetrazol-5-yl)benzyl]-1,2-dihydroisoquinoline-7-carboxylic Acid 4-methyl-sulfanylbenzylamide] |
| 0.0029 | > 30 | > 10 | > 30 | > 10 | COc1cccc(CNC(=O)c2ccc3ccn(Cc4ccc(-c5nn[nH]n5)cc4)c(=O)c3c2)c1 [Example 59, 1-oxo-2-[4-(2H-tetrazol-5-yl)benzyl]-1,2-dihydroisoquinoline-7-carboxylic Acid 3-methoxy-benzylamide] |
